Columns and labels:
Rat hydrolase A = target: T1, Rat hydrolase A (Rattus norvegicus, UniProt P16303); format: biochemical
T1 sequence (P16303 19-565): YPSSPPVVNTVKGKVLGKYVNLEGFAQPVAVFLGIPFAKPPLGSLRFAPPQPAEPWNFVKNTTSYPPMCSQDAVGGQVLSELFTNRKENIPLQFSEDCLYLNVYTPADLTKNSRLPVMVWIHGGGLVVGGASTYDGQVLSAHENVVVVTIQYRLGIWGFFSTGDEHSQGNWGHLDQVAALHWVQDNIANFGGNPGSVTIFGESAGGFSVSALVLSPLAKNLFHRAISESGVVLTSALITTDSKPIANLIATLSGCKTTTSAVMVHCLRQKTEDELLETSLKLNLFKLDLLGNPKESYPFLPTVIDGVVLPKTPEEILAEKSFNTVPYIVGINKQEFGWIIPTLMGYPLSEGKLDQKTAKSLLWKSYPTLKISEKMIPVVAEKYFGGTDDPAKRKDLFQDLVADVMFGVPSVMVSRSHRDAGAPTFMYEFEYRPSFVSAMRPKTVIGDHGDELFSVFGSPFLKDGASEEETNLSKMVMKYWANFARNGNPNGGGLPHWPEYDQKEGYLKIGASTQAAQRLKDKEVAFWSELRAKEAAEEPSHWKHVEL

[1] = target: porcine liver carboxylesterase; settings: 25°C, ref Quistad and Casida, 2000; cited from earlier work
[2] = tested on: recombinant human butyrylcholinesterase; settings: experimental, ref Amitai et al., 1998; cited from earlier work
[3] = tested on: recombinant human acetylcholinesterase; settings: experimental, ref Amitai et al., 1998; cited from earlier work
butyrylcholinesterase = settings: purified butyrylcholinesterase; ref Shenouda et al., 2009; cited from earlier work
[4] = target: T2, Human recombinant CES2 (Carboxylesterase 2) (Homo sapiens, UniProt O00748); format: biochemical
T2 sequence (O00748 27-559): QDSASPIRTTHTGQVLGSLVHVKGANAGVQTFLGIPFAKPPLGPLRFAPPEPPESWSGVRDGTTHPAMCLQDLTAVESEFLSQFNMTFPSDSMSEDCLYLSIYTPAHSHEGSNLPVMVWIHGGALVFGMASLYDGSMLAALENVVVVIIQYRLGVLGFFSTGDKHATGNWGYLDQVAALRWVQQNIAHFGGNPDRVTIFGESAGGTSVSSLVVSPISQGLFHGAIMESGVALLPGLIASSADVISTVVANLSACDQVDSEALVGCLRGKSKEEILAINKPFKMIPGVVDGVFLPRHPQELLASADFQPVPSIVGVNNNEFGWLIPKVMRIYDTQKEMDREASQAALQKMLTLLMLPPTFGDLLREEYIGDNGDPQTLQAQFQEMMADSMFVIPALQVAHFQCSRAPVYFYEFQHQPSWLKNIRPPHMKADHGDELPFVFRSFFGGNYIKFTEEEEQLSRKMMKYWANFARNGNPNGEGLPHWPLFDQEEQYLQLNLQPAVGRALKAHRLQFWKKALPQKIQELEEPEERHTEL

[5] = target: T3, Human recombinant CES1 (Carboxylesterase 1) (Homo sapiens, UniProt P23141); format: biochemical; settings: Michaelis constant of substrate pNPV with CES1, no inhibitor
T3 sequence (P23141 18-567): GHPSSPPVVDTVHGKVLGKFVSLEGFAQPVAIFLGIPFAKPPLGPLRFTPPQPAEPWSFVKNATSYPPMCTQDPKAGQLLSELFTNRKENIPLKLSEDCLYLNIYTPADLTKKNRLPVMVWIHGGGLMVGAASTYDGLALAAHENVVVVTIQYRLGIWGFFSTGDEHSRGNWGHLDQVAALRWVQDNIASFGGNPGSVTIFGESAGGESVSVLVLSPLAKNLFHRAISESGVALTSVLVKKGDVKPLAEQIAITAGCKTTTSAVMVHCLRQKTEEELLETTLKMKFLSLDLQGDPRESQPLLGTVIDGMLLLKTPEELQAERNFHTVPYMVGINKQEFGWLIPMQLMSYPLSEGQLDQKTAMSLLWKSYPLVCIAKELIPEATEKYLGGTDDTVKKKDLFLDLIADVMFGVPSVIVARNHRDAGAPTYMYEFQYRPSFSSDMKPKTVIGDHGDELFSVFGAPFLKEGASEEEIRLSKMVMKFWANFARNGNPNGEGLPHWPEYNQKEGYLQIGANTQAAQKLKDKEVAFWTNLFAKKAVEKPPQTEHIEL

[6] = target: T4, Human recombinant MGL (Monoacylglycerol lipase) (Homo sapiens, UniProt Q99685); format: biochemical; settings: Michaelis constant of substrate pNPV with MGL, no inhibitor
T4 sequence (Q99685 1-303): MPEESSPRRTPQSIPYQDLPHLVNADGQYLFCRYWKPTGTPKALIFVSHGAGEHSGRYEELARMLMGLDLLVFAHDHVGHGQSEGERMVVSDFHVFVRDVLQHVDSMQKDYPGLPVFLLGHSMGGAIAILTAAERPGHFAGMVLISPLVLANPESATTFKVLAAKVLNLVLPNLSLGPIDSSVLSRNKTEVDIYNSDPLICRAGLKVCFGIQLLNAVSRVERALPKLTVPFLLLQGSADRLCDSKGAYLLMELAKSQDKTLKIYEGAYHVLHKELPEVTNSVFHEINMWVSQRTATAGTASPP

In the case of `CCOP(=O)(OCC)Oc1nc(Cl)c(Cl)cc1Cl` [Chlorpyrifos Oxon, Chlorpyrifos oxon], the bimolecular rate constant (Rat hydrolase A; rat hydrolase A purified from rat liver) is given as 3.3e+06 M⁻¹ s⁻¹, the IC50 [1] is given as 2 nM and the bimolecular rate constant [2] is given as 2.78e+07 M⁻¹ s⁻¹. The bimolecular rate constant [3] was 167000 M⁻¹ s⁻¹ and the bimolecular rate constant (butyrylcholinesterase) was 8.47e+08 M⁻¹ s⁻¹.

In the case of `CCOP(=O)(OCC)Oc1ccc([N+](=O)[O-])cc1` [Paraoxon], the “true bimolecular rate constant” value ([4]; CES2, single representative experiment, calculated with Equation (4)) is given as 29000 M⁻¹ s⁻¹, the “apparent bimolecular rate constant (ki’= kinact/KI’)” value ([4]; CES2, single representative experiment, pNPV 500 µM, 37°C) is given as 4400 M⁻¹ s⁻¹ and the IC50 [1] is given as 3 nM.

Compound `CCCCC(=O)Oc1ccc([N+](=O)[O-])cc1` [pNPV, para-Nitrophenyl valerate] has a Km [5] of 136 ± 40 µM, a Km ([4]; Michaelis constant of substrate pNPV with CES2, no inhibitor) of 90 ± 12 µM and a Km [6] of 158 ± 37 µM. The Km (Rat hydrolase A; Michaelis constant of substrate pNPV with rat hydrolase A, no inhibitor) was 32.6 µM.

Source: paper PMC3345137 (Toxicology and Applied Pharmacology, 2011)
